# Measurements published in patent US20250387410A1, “TREATMENT OF ANTI-VEGF REFRACTORY OPHTHALMIC RETINAL EYE CONDITIONS” (Eye Co Pty Ltd., priority 2022, published 2025).
# Entries after “also recorded” stand apart in the source; their conditions may differ.
# How the values were obtained:
# 661W cells = experiment: MTT assay, cell viability of 661W cells; assay type: cell-based, human
# Text: (§1) The immortalised retinal cells used were as follows: MIO-M1 cells (Muller cell-derived; Müller 1 Moorefields, Institute of Ophthalmology, Dr A. Limb, Institute of Ophthalmology, University College, UK); ARPE19 (RPE-derived; ATCC CRL-2302, American Tissue Culture Collection, VA, USA); and 661W cells (photoreceptor-like derived; kindly gifted by Dr Muayyad R. Al-Ubaidi, Department of Cell Biology, University of Oklahoma Health Sciences Centre, Oklahoma City, OK, USA). Cells were authenticated and validated from Cell Bank Australia.
# The immortalised retinal cell lines MIO-M1, 661W and ARPE19 were used to undertake the MTT assay to assess cell metabolic activity, based on the cell's availability of NAPDH. Treatments included exposure to one of FA (10-0.01 μg/μl, provided by Professor Ben Boyd, Monash University, Australia), TA (10-0.01 μg/p, Honeywell, USA) and Dexamethasone (10-0.0001 μg/μl, Sigma-Aldrich, MO, USA). All corticosteroids used in vitro were dissolved in 20% dimethyl sulfoxide (DMSO) (Sigma-Aldrich, MO, USA) and ultrapure endotoxin 0.1M PBS (Thermo Fisher Scientific, MA, USA). At the 12-hour time point following addition of the corticosteroid, 10p of MTT reagent (Roche, Switzerland) was added to each well. To protect against light, plates were wrapped in foil and stored in the dark at 37° C. for 4 hours at 5.0% CO2. Cells were monitored using a bright field Zeiss Axiovert 200 inverted microscope (Carl Zeiss Meditec, Dublin, CA. USA) for formation of insoluble purple formazan precipitate crystals in viable cells. Subsequently 100p of MTT solubilisation solution was added and once again incubated in darkness at 37° C., 5.0% CO2 for 24 hours. Quantification of the MTT assay was performed by measuring the absorbance at 570 nm using Tecan Infinite® 200 PRO (Tecan, Mannedorf, Switzerland).
# [1] = system: Ccl2, Il-6, Il-8 expression in MIO-M1 cells; experiment: IL-1β stimulation of MIO-M1 cells, cytokine gene expression by QRT-PCR; assay type: cell-based, human; conditions: 1 μg/μl steroid, 1 ng/μl IL-1β, 12 h, versus IL-1β alone
# Text: as §1
# (§2) IL-1β and TNF-α were administered to MIO-M1 cells to initiate an inflammatory response in order to test the anti-inflammatory properties of the selected corticosteroids. MIO-M1 cells were grown to a cell density of 50,000 cells per well in a 24 well plate using growth media and foetal bovine serum as described (Section 2.1.1). MIO-M1 cells were challenged with either 1 ng/μl of IL-1β or TNF-α (R&D Systems, MN, USA). Experimental wells were treated with either 1 μg/μl FA, TA or Dexamethasone. […]
# (§3) Following purification of RNA, cDNA was synthesized using the Bioline Tetro kit (Bioline, Australia) as per the manufacturer's instructions. Quantitative Real Time Polymerase Chain Reaction (QRT-PCR) was undertaken to profile gene expression changes in animal and cell culture samples. […] Data was analysed using the QuantStudio 12K Flex Software (Applied Biosystems, USA).
# [2] = system: Ccl2, Il-6, Il-8 expression in MIO-M1 cells; experiment: TNF-α stimulation of MIO-M1 cells, cytokine gene expression by QRT-PCR; assay type: cell-based, human; conditions: 1 μg/μl steroid, 1 ng/μl TNF-α, 12 h, versus TNF alone
# Text: as §1, §2, §3
# [3] = system: Il-1b-stimulated MIO-M1 cells; experiment: Co-incubation with selective receptor antagonists in Il-1b-stimulated MIO-M1 cells; assay type: cell-based, human; conditions: stimulated Muller (MIO-M1) cells, receptor blockers
# Method: FIG. 3 Contribution of glucocorticoid and mineralocorticoid receptor signalling to the anti-inflammatory effect of FA in vitro.
# IL-1β and TNF-α were administered to MIO-M1 cells to initiate an inflammatory response in order to test the anti-inflammatory properties of the selected corticosteroids. MIO-M1 cells were grown to a cell density of 50,000 cells per well in a 24 well plate using growth media and foetal bovine serum as described (Section 2.1.1). MIO-M1 cells were challenged with either 1 ng/μl of IL-1β or TNF-α (R&D Systems, MN, USA). Experimental wells were treated with either 1 μg/μl FA, TA or Dexamethasone. Twelve hours post addition, growth medium was removed from each well and replaced with 860 μl of TRIzol (Thermo Fisher Scientific, MA, USA), agitated approximately 20 times and then placed in a clean 1.5 ml Eppendorf tube to extract ribonucleic acid (RNA).
# Following purification of RNA, cDNA was synthesized using the Bioline Tetro kit (Bioline, Australia) as per the manufacturer's instructions. Quantitative Real Time Polymerase Chain Reaction (QRT-PCR) was undertaken to profile gene expression changes in animal and cell culture samples. TaqMan hydrolysis probes (Applied Biosystems, USA) and Gene Expression Master Mix (Applied Biosystems, USA) were used. A clear 384 well plate (Applied Biosystems, USA) was used with each biological sample plated in duplicate. A reaction mixture per sample was set up and included 0.5 μl cDNA, 4 μl Rnase Free Water, 5 μl Gene Expression Master Mix and 0.5 μl Taqman Primer Probe (Thermo Fisher Scientific), as listed in Table 2.5. The amplification of each sample was undertaken using a QuantStudio 12K Flex QRT-PCR machine (Applied Biosystems, USA). GAPDH was used as the reference gene using the comparative cycle threshold (Ct) method (ΔΔCt), as it is known not to change expression following retinal photo-oxidative damage. Data was analysed using the QuantStudio 12K Flex Software (Applied Biosystems, USA).
# [4] = system: C57BL/6J mice, photo-oxidative damage (PD); experiment: Photo-oxidative damage (PD) model of retinal degeneration, intravitreal injection; assay type: in vivo, mouse; conditions: for ONL thickness (OCT): 1-2 mm and 2-3 mm from the optic nerve, about 1 mg/ml in vitreous; for ONL thickness (OCT) / a-wave and b-wave ERG responses: versus controls; for a-wave and b-wave ERG responses: scotopic; for IBA1+ macrophages in the outer retina: versus control
# Text: All experiments conducted were in accordance with the ARVO Statement for Use of Animals in Ophthalmic and Vision Research, and with approval from the ANU Animal Experimentation Ethics Committee (AEEC, protocol #A2014/56). C57BL/6J mice aged 60 post-natal days were used in this study. Animals were born, reared and held under dim light conditions (5 lux) prior to photo-oxidative damage.
# In vivo cross-sectional and fundus images of the mouse retina were acquired using Optical Coherence Tomography (OCT).
# Intravitreal injections were performed on C57BL/6J mice aged 60 post-natal days. Treatments included exposure to FA or TA dissolved in Suspension (comprised of 0.5% w/v carboxymethyl cellulose and 0.4% v/v Tween 80). The final concentration of drug in the vitreous chamber is estimated to be as 1 mg/ml.
# Age-matched C57BL/6J mice (60 post-natal days) were exposed to continuous 100K lux white LED light for 5 days with access to food and water ad libitum. During this time, 1% atropine sulphate (Minims 1% atropine sulphate eye drops; Bausch and Lomb, USA) was administered to both eyes twice daily to dilate the pupils. Animals were subsequently euthanised with carbon dioxide (CO2).
# Electroretinography (ERG) was used to assess the retinal function response of rodents to full-field flash stimuli under scotopic conditions. Dim-reared control and photo-oxidative damaged animals were used, using known methods.
# Animals were dark-adapted overnight before the commencement of ERG experiments. Animals were anaesthetised as previously described, and all retinal recordings were undertaken in a dark room with minimal red light source.
# Terminal deoxynucleotidyl transferase (Tdt) dUTP nick end labelling (TUNEL) is an established technique used to detect apoptotic and necrotic cells.
# The retina was evenly divided into 8 quadrants. Each quadrant was viewed using a confocal microscope (LSM 5, Zeiss, Germany) and TUNEL^+ and IBA1^+ cells were identified and counted. Data were graphed and analysed using Prism 6 software (GraphPad Software, CA, USA).
# [5] = 5 days PD, intravitreal, listed as Suspension+FA
smiles,measurement,setting,value
"CC(=O)OCC(=O)[C@@]1(O)CC[C@H]2[C@@H]3CCC4=CC(=O)CC[C@]4(C)[C@@]3(F)[C@@H](O)C[C@@]21C [FA, 9-α-Fluoro-11 β. 17 α, 21-trihydroxy-4-pregnene-3, 20 dione acetate]",viability of 661W cells at 1 μg/μl,661W cells; 1 μg/μl,does not significantly alter cell viability
same,viability of 661W cells (MTT assay),"661W cells; 10-0.01 μg/μl, 12 h, compared to DMSO-only group",do not induce toxicity; also recorded: no significant effect
same,"Ccl2, Il-6, and Il-8 expression after IL-1β stimulation",[1],drastically reduced; also recorded: suppressed to near baseline levels
same,"Ccl2, Il-6, and Il-8 expression after TNF stimulation",[2],significantly reduced; also recorded: drastically reduced; also recorded: significantly inhibited
same,"receptor mediating the impact on expression of CCL2, IL-6 and IL-8",[3],mediated through the glucocorticoid receptor; also recorded: dependent on glucocorticoid receptor signalling
same,ONL thickness (OCT),"[4]; 5 days PD, intravitreal",significant preservation
same,ONL thickness (OCT),[4]; [5],significantly greater
same,a-wave and b-wave ERG responses,"[4]; 5 days PD, intravitreal",significantly larger
same,a-wave and b-wave ERG responses,[4]; [5],significantly higher
same,IBA1+ macrophages in the outer retina,"[4]; 5 days PD, intravitreal",significant reduction
same,IBA1+ macrophages in the outer retina,[4]; [5],significant decrease
same,TUNEL+ photoreceptors (outer retina),"[4]; 5 days PD, intravitreal, versus vehicle/controls",significantly fewer
same,photoreceptor survival in PD,"[4]; intravitreal injection, mice",improves photoreceptor survival
